Data published in PubChem BioAssay AID1508612.

Assay: passive permeability, PAMPA, ADME assay (AID 1508612)
Details: pH 7.4, 30.0 min, 50.0 µM
With `O=C(Cc1ccc(Cl)c(Cl)c1)Nc1ccc(S(=O)(=O)Nc2cncnc2)cc1` the Papp was 1.5 ×10⁻⁶ cm/s. `O=C(Nc1cccnc1)c1cccs1` gave a Papp of 56.5 ×10⁻⁶ cm/s. In the case of `O=C(Nc1ccc2oc(-c3cccnc3)nc2c1)c1ccc(-c2ccccc2)o1`, the Papp is reported as 771 ×10⁻⁶ cm/s. In the case of `N#Cc1nc(-c2cccc3ccccc23)oc1NC1COC1`, the Papp is reported as > 1000 ×10⁻⁶ cm/s. `Cc1ccccc1C(=O)N1CCc2cc(N3CCC(NC(=O)Cc4ccccc4)C3)ccc21` (stereo not drawn) showed a Papp of 783 ×10⁻⁶ cm/s. In the case of `Cc1cccc(NCc2ccc(O)c3ncccc23)c1`, the Papp is reported as < 1 ×10⁻⁶ cm/s. In the case of `Nc1ccccc1OCCn1c(CCNC(=O)C2CCCCC2)nc2ccccc21`, the Papp is reported as 746 ×10⁻⁶ cm/s. `COc1ccccc1NC(=O)C1=C(C)Nc2c(C(=O)Nc3cccc(C)c3)cnn2C1c1ccccc1Cl` (stereo not drawn) showed a Papp of 751 ×10⁻⁶ cm/s. For `CCN(CC)C(=O)c1coc(COc2ccc3c(c2)C(c2cccc(F)c2)N(C(=O)C(C)C)CC3)n1` (stereo not drawn), the Papp was > 1000 ×10⁻⁶ cm/s. In the case of `Cc1noc(C)c1CN1CCNc2cc(Nc3ccccc3)ncc2C1`, the Papp is reported as 978 ×10⁻⁶ cm/s. For `CCNC(=O)c1noc(-c2cc(C(C)C)c(O)cc2O)c1-c1ccc(CN2CCOCC2)cc1`, the Papp was 335 ×10⁻⁶ cm/s. In the case of `O=C(c1ccc2c(c1)OCO2)N1CCC(Cc2nc(-c3cnccn3)no2)CC1`, the Papp is reported as 71.9 ×10⁻⁶ cm/s. `C#CC1(O)CCC2C3CCC4=C/C(=N/OCC(=O)NCC(=O)NC(C(=O)O)C(C)C)CC[C@]4(C)C3CC[C@@]21C` (stereo partly drawn) showed a Papp of 4.52 ×10⁻⁶ cm/s. In the case of `COc1cccc(Cn2c(=O)n(-c3cccc(Cl)c3C)c(=O)c3c4c(sc32)CN(C(C)=O)CC4)c1`, the Papp is reported as > 1000 ×10⁻⁶ cm/s. With `COc1ccc(C2=Nn3c([n+](C)c4ccccc43)SC2)cc1` the Papp was < 1 ×10⁻⁶ cm/s. `CC(=O)c1c(C)[nH]c(C(=O)Nc2cccc([S+](=O)([O-])N3CC[C@@H](F)C3)c2)c1C` showed a Papp of 199 ×10⁻⁶ cm/s. In the case of `COc1ccc(NC(=O)c2[nH]c(C)c(C(C)=O)c2C)cc1S(=O)(=O)N1CCCCC1`, the Papp is reported as 757 ×10⁻⁶ cm/s. With `Cc1ccc(-n2nc3c(N4CCCC(C(=O)NCc5ccccc5C)C4)nnc(C)c3c2C)cc1` (stereo not drawn) the Papp was 173 ×10⁻⁶ cm/s. With `COc1cc(C(=S)N2CCN(CCO)CC2)ccc1OCc1ccc(C)cc1` the Papp was > 1000 ×10⁻⁶ cm/s. Work on `C#Cc1ccc(NC(=O)c2cnn3c(C)cc(C)nc23)cc1` yielded a Papp of 14 ×10⁻⁶ cm/s. `O=C(O)c1ccc(-c2c[nH]c3ncc(-c4ccccc4)cc23)cc1C1CCCC1` gave a Papp of 400 ×10⁻⁶ cm/s. `CN(C)C(=O)C1CCN(c2nc(-c3ccc(Br)cc3)cs2)CC1` gave a Papp of 583 ×10⁻⁶ cm/s. `COc1cc(C2c3cc(O)c(OC)cc3CC3C(=O)OCC32)ccc1O` (stereo not drawn) showed a Papp of 129 ×10⁻⁶ cm/s. For `c1ccc(-c2cn[nH]c2)cc1`, the Papp was 288 ×10⁻⁶ cm/s. In the case of `Cc1cc(NS(=O)(=O)c2ccc(N(C)C(=O)Cc3ccc(Cl)c(Cl)c3)cc2)no1`, the Papp is reported as 48.1 ×10⁻⁶ cm/s. Work on `Cc1c(-c2nsc(NC(=O)c3cccc(Cl)c3)n2)nnn1-c1ccccc1C(F)(F)F` yielded a Papp of 706 ×10⁻⁶ cm/s. `COc1cccc(C(=O)Nc2nc(-c3nnn(-c4cccc(Cl)c4C)c3C)ns2)c1` gave a Papp of 321 ×10⁻⁶ cm/s. `CCc1ccc(C2C(C(=O)Nc3ccccc3OC)=C(C)Nc3c(C(=O)Nc4ccc(C)cc4)cnn32)cc1` (stereo not drawn) showed a Papp of 547 ×10⁻⁶ cm/s. With `CC(=O)c1ccc(-c2csc(N3CCC(C(N)=O)CC3)n2)cc1` the Papp was 300 ×10⁻⁶ cm/s. In the case of `COc1ccc(-n2c(C)cc(-c3nnc4n3CCCCC4)c2C)cc1`, the Papp is reported as 488 ×10⁻⁶ cm/s. `COc1ccccc1Nc1cnc2ccc(-c3ccc(OC)c(OC)c3)nn12` gave a Papp of 397 ×10⁻⁶ cm/s. `CC(C)(C)c1ccc(C(=O)Nc2ccc3c(c2)CCCN3C(=O)c2cccs2)cc1` gave a Papp of 181 ×10⁻⁶ cm/s. Molecule `NC(=O)C1CCN(c2nnc(-c3ccc(Br)cc3)s2)CC1` has a Papp of 525 ×10⁻⁶ cm/s. `CN(C)c1cccc(-c2ncc(F)c(N3CCC(C(N)=O)CC3)n2)c1` showed a Papp of 599 ×10⁻⁶ cm/s. In the case of `Fc1cccc(-c2ccc(Nc3nc(-c4ccncc4)nc4ccccc34)cc2F)c1`, the Papp is reported as 49 ×10⁻⁶ cm/s. In the case of `O=C1Nc2c(Cl)cccc2/C1=C\c1cc(Cl)c(O)c(Cl)c1`, the Papp is reported as 58.8 ×10⁻⁶ cm/s. For `Cc1ccc(-c2nc(NCC(=O)Nc3cccc(C(=O)O)c3)c3ccccc3n2)cc1`, the Papp was < 1 ×10⁻⁶ cm/s. For `CN(Cc1ccc(/C=C/C(=O)NO)cc1)CC12CC3CC(CC(C3)C1)C2`, the Papp was > 1000 ×10⁻⁶ cm/s. Molecule `Cc1cc(-c2cc3c(nc2-c2ccccc2)nc(C(=O)NCCN(C)C)n3C)ccn1` has a Papp of 320 ×10⁻⁶ cm/s. In the case of `COc1ccc(-c2ccc3nc(-c4ccc(SC)cc4)oc3c2)c(OC)c1OC`, the Papp is reported as < 1 ×10⁻⁶ cm/s. For `c1ccc(C2=Nn3c(nnc3-c3ccncc3)SC2)cc1`, the Papp was 195 ×10⁻⁶ cm/s. With `COc1ccc(OC)c(Nc2c3c(nc4ccccc24)CCC3)c1` the Papp was > 1000 ×10⁻⁶ cm/s. For `CN1C(=O)CN=C(c2ccccc2Cl)c2cc(Cl)ccc21`, the Papp was > 1000 ×10⁻⁶ cm/s. `CNc1cc(-c2nc(Nc3ccc(F)c(F)c3)c3ccccc3n2)ccn1` showed a Papp of 257 ×10⁻⁶ cm/s. Molecule `Cc1ccc(S(=O)(=O)Nc2cnccc2C(=O)Nc2ccccc2)cc1` has a Papp of 123 ×10⁻⁶ cm/s. For `CCOc1ccc(CCNC(=O)c2cc3cccnc3n2Cc2cccc(C)c2)cc1OCC`, the Papp was > 1000 ×10⁻⁶ cm/s. In the case of `O=S(=O)(Nc1nccs1)c1ccc(NCc2cccc3cc[nH]c23)cc1`, the Papp is reported as 2.4 ×10⁻⁶ cm/s. `CC1=C(C(=O)Nc2nc3ccccc3s2)C(c2[nH]ncc2Cl)N=C(Nc2nc3ccccc3o2)N1` (stereo not drawn) gave a Papp of 6 ×10⁻⁶ cm/s. `COc1ccc(C(=O)Nc2ccc3c(c2)N(C2CCCC2)C(=O)c2ccccc2S3)cc1OC` showed a Papp of 15.7 ×10⁻⁶ cm/s. Molecule `CCOc1ccc(CCNC(=O)c2cc3sccc3n2C(C)C)cc1OCC` has a Papp of 897 ×10⁻⁶ cm/s. With `FC(F)(F)c1ccccc1-c1nc(NCc2cccs2)c2ccccc2n1` the Papp was > 1000 ×10⁻⁶ cm/s. For `COc1ccc(-n2nc(C)c([C@@H]3C=C[C@@H](NCc4ccc(F)cc4)C3)c2C)cc1`, the Papp was > 1000 ×10⁻⁶ cm/s. With `COCCNc1ncnc2onc(-c3ccc(F)cc3)c12` the Papp was 458 ×10⁻⁶ cm/s.
